Converted amounts (≈) assume the structure as drawn.
Experiments:
MRSA = assay: Antibacterial MIC test (CLSI); assay type: cell-based, Methicillin-resistant Staphylococcus aureus; details: for MIC MRSA: MHB liquid medium, 37° C., 24 hours
Protocol: (§1) The MIC test was conducted in accordance CLSI guidelines. […] As a positive control, Nofloxacin and Vancomycin were used.

B. coagulans (+) = assay: Antibacterial MIC test (CLSI); assay type: cell-based; details: for MIC B. coagulans (+): MHB liquid medium, 37° C., 24 hours
Protocol: as §1

P. acnes (+) = assay: Antibacterial MIC test (CLSI); assay type: cell-based; details: for MIC P. acnes (+): MHB liquid medium, 37° C., 24 hours
Protocol: as §1

E. coli (−) = assay: Antibacterial MIC test (CLSI); assay type: cell-based; details: for MIC E. coli (−): MHB liquid medium, 37° C., 24 hours
Protocol: as §1

B. subtilis (+) = assay: Antibacterial MIC test (CLSI); assay type: cell-based; details: for MIC B. subtilis (+): MHB liquid medium, 37° C., 24 hours
Protocol: as §1

L. monocytogenes (+) = assay: Antibacterial MIC test (CLSI); assay type: cell-based; details: for MIC L. monocytogenes (+): MHB liquid medium, 37° C., 24 hours
Protocol: as §1

B. cereus (+) = assay: Antibacterial MIC test (CLSI); assay type: cell-based; details: for MIC B. cereus (+): MHB liquid medium, 37° C., 24 hours
Protocol: as §1

S. aureus enterica (−) = assay: Antibacterial MIC test (CLSI); assay type: cell-based; details: for MIC S. aureus enterica (−): MHB liquid medium, 37° C., 24 hours
Protocol: as §1

M. luteus (+) = assay: Antibacterial MIC test (CLSI); assay type: cell-based; details: for MIC M. luteus (+): MHB liquid medium, 37° C., 24 hours
Protocol: as §1

S. aureus (+) = details: MHB liquid medium, 37° C., 24 hours
Protocol: (§2) The antibacterial activities against Gram-positive bacteria, Gram-negative bacteria or multi-drug resistant bacteria were evaluated for the compounds of the present invention. The MIC test was conducted in accordance CLSI guidelines. E. coli(−), P. aeruginosa(−), and S. enterica(−) were used as Gram-negative bacteria, B. cereus(+), B. subtilis(+), B. coagulans(+), L. monocytogenes(+), M. luteus(+), P. acnes(+), S. epidermidis(+), and S. aureus(+) were used as Gram-positive bacteria. Methicillin-resistant Staphylococcus aureus (MRSA) was used as multi-drug resistant bacteria. The bacterial cells were incubated until the OD600 of the single colonies reached 0.1. […] Subsequently, bacterial cells were incubated at 37° C. for 24 hours, and then the MICs (μg/ ? ) were determined by visual reading and optical density detection at 600 nm (OD600). As a positive control, Nofloxacin and Vancomycin were used.

S. epidermidis (+) = details: MHB liquid medium, 37° C., 24 hours
Protocol: as §2

C. albicans = details: RPMI1640 broth, 35° C., 48 hours, visual reading; expressed as a range value
Protocol: An in vitro antifungal susceptibility test was performed in accordance with the US Clinical and Laboratory Standards Institute (CLSI) guidelines to measure the degree of antifungal activity of the compounds synthesized in the Preparation Examples against opportunistic pathogenic fungi. […] The MIC value (μg/ ? ) is expressed as a range value. Specifically, Candida species and Cryptococcus neoformans were incubated in a Sabouraud dextrose agar (SDA) (Sigma-Aldrich) solid medium for 24 and 48 hours, respectively to obtain single colonies. The obtained single colonies were suspended in 0.85% physiological saline to prepare fungal cell suspension (1 to 5×10^6 cells/ ? ). Fungal cells 2000-fold diluted in RPMI1640 broth (Sigma-Aldrich) were seeded on 96-well plates (5×10^2 to 2.5×10^3 cells/ ? , 195 ? /well). Serial two-fold dilutions (128, 64, 32, 16, 8, 4, 2, 1, and 0.5 μg/ ? ) of compounds were prepared by diluting the compounds synthesized according to the above preparation examples. Then, 5 ? from each dilution was added to the well of the 96-well plate containing fungal cell suspension to give a final suspension of 200 ? per well. […] As a positive control, amphotericin B (AMB), which is highly toxic to the human body but is known as a representative antifungal agent, was used.

C. neoformans = details: RPMI1640 broth, 35° C., 72 hours, visual reading; expressed as a range value
A. fumigatus = details: visual reading; expressed as a range value
C. glabrata = details: RPMI1640 broth, 35° C., 48 hours, visual reading; expressed as a range value

SMILES | MIC S. aureus (+) (S. aureus (+)) [µg/mL] | MIC S. epidermidis (+) (S. epidermidis (+)) [µg/mL] | MIC (μg/mL) C. albicans (C. albicans) | MIC MRSA (MRSA) [µg/mL] | MIC (μg/mL) C. neoformans (C. neoformans) | MIC (μg/mL) A. fumigatus (A. fumigatus) | MIC P. acnes (+) (P. acnes (+)) [µg/mL] | MIC E. coli (−) (E. coli (−)) [µg/mL] | MIC B. subtilis (+) (B. subtilis (+)) [µg/mL] | MIC L. monocytogenes (+) (L. monocytogenes (+)) [µg/mL] | MIC B. cereus (+) (B. cereus (+)) [µg/mL] | MIC S. aureus enterica (−) (S. aureus enterica (−)) [µg/mL] | MIC M. luteus (+) (M. luteus (+)) [µg/mL] | MIC (μg/mL) C. glabrata (C. glabrata) | MIC B. coagulans (+) (B. coagulans (+)) [µg/mL] | also measured
CN[C@H](CC(C)C)C(=O)N[C@H]1C(=O)N[C@@H](CC(N)=O)C(=O)N[C@H]2C(=O)N[C@H]3C(=O)N[C@H](C(=O)N[C@H](C(=O)O)c4cc(O)cc(O)c4-c4cc3ccc4O)[C@H](O)c3ccc(c(Cl)c3)Oc3cc2cc(c3O[C@@H]2O[C@H](CO)[C@@H](O)[C@H](O)[C@H]2O[C@H]2C[C@](C)(N)[C@H](O)[C@H](C)O2)Oc2ccc(cc2Cl)[C@H]1O [Vancomycin, reference compound] |  |  |  |  |  |  |  |  |  |  |  |  |  |  |  | MIC (MRSA; Staphylococcus aureus, MRSA, 24 h, read-out: MIC MRSA): 1 µg/mL (≈ 0.69 µM); MIC (B. coagulans (+); Heyndrickxia coagulans, 24 h, read-out: MIC B. coagulans (+)): 0.25 µg/mL (≈ 0.173 µM); MIC (P. acnes (+); Cutibacterium acnes, 24 h, read-out: MIC P. acnes (+)): < 0.125 µg/mL; MIC (E. coli (−); Escherichia coli, 24 h, read-out: MIC E. coli (−)): 64 µg/mL (≈ 44.2 µM); MIC (B. subtilis (+); Bacillus subtilis, 24 h, read-out: MIC B. subtilis (+)): 0.25 µg/mL (≈ 0.173 µM); MIC (L. monocytogenes (+); Listeria monocytogenes, 24 h, read-out: MIC L. monocytogenes (+)): 0.25 µg/mL (≈ 0.173 µM); MIC (B. cereus (+); Bacillus cereus, 24 h, read-out: MIC B. cereus (+)): 0.5 µg/mL (≈ 0.345 µM); MIC (S. aureus enterica (−); Staphylococcus aureus, 24 h, read-out: MIC S. aureus enterica (−)): > 64 µg/mL; MIC (M. luteus (+); Micrococcus luteus, 24 h, read-out: MIC M. luteus (+)): 0.25 µg/mL (≈ 0.173 µM)
CCCCC(N)C(=O)NCCc1ccc(-c2ccc(Cl)c(Cl)c2)cc1.Cl (racemic) [Compound 75, (R)/(S)-2-amino-N-(2-(3′,4′-dichloro-[1,1′-biphenyl]-4-yl)ethyl)hexanamide hydrochloride] | 8 | 8 | 0.5~4 μg/mL | 8 | 0.5~4 μg/mL | 0.5~4 μg/mL | 8 | 32 | 8 | 8 | 16 | >32 | 8 | 0.5~4 μg/mL |  | 
CCC(N)C(=O)Nc1ccc(-c2ccc(Cl)c(Cl)c2)cc1.Cl (racemic) [Compound 29, (R)/(S)-2-amino-N-(3′,4′-dichloro-[1,1′-biphenyl]-4-yl)butanamide hydrochloride] | <4 | <4 | 4~16 μg/mL | <4 | 2~8 μg/mL | 4~16 μg/mL | <4 | 8 | <4 | <4 | 8 | 8 | <4 | 4~16 μg/mL | <4 | 
CCCCC(NC)C(=O)NCCc1ccc(-c2ccc(C(F)(F)F)cc2)cc1.Cl (racemic) [Compound 88, (R)/(S)-2-(methylamino)-N-(2-(4′-(trifluoromethyl)-[1,1′-biphenyl]-4-yl)ethyl)hexanamide hydrochloride] | 8 | 8 | 4~16 μg/mL | 8 | 2~8 μg/mL | 4~16 μg/mL | <4 | 8 | 32 | <4 | >64 | >64 | >64 | 4~16 μg/mL | <4 | 
CCCCC(N)C(=O)Nc1ccc(-c2ccc(Cl)c(Cl)c2)cc1.Cl (racemic) [Compound 31, (R)/(S)-2-amino-N-(3′,4′-dichloro-[1,1′-biphenyl]-4-yl)hexanamide hydrochloride] | <4 | <4 | 0.5~4 μg/mL | <4 | 0.5~4 μg/mL | 0.5~4 μg/mL | <4 | <4 | <4 | <4 | <4 | 8 | <4 | 0.5~4 μg/mL | <4 | 
CCCC(NC)C(=O)NCc1ccc(-c2ccc(Cl)c(Cl)c2)cc1.Cl (racemic) [Compound 51, (R)/(S)-N-((3′,4′-dichloro-[1,1′-biphenyl]-4-yl)methyl)-2-(methylamino)pentanamide hydrochloride] | 16 | 16 | 4~16 μg/mL | 16 | 2~8 μg/mL | 4~16 μg/mL | 16 | >32 | 16 | 16 | 32 | >32 | 16 | 4~16 μg/mL | 4 | 
CCC(N)C(=O)NCCc1ccc(-c2ccc(Cl)c(Cl)c2)cc1.Cl (racemic) [Compound 73, (R)/(S)-2-amino-N-(2-(3′,4′-dichloro-[1,1′-biphenyl]-4-yl)ethyl)butanamide hydrochloride] | 8 | 8 | 8~32 μg/mL | 8 | 2~8 μg/mL | 8~32 μg/mL | 8 | 8 | 8 | 8 | 32 | 16 | 8 | 8~32 μg/mL | <4 | 
CCn1cc(C(=O)O)c(=O)c2cc(F)c(N3CCNCC3)cc21 [Nofloxacin, reference compound] |  |  |  | 0.5 (≈ 1.57 µM) |  |  | <0.125 | <0.125 | <0.125 | <0.125 | 1 (≈ 3.13 µM) | <0.125 | <0.125 |  | <0.125 | 
C[C@@H]1[C@H](O)[C@@H](C)/C=C/C=C/C=C/C=C/C=C/C=C/C=C/[C@H](O[C@@H]2O[C@H](C)[C@@H](O)[C@H](N)[C@@H]2O)C[C@@H]2O[C@](O)(C[C@@H](O)C[C@@H](O)[C@H](O)CC[C@@H](O)C[C@@H](O)CC(=O)O[C@H]1C)C[C@H](O)[C@H]2C(=O)O [ABM, amphotericin B, reference compound] |  |  | 0.25 µg/mL (≈ 0.271 µM) |  | 0.25 µg/mL (≈ 0.271 µM) | 1 µg/mL (≈ 1.08 µM) |  |  |  |  |  |  |  | 0.5 µg/mL (≈ 0.541 µM) |  | 
CCCC(NC)C(=O)NCCc1ccc(-c2ccc(OC(F)(F)F)cc2)cc1.Cl (racemic) [Compound 90, (R)/(S)-2-(methylamino)-N-(2-(4′-(trifluoromethoxy)-[1,1′-biphenyl]-4-yl)ethyl)pentanamide hydrochloride] |  |  | 4~16 μg/mL |  | 4~16 μg/mL | 4~16 μg/mL |  |  |  |  |  |  |  | 4~16 μg/mL |  | 
CCCC(N)C(=O)Nc1ccc(-c2ccc(Cl)c(Cl)c2)cc1.Cl (racemic) [Compound 30, (R)/(S)-2-amino-N-(3′,4′-dichloro-[1,1′-biphenyl]-4-yl)pentanamide hydrochloride] | 16 | 16 | 4~16 μg/mL | 16 | 2~8 μg/mL | 4~16 μg/mL | 16 | >32 | 16 | 16 | 32 | >32 |  | 4~16 μg/mL | 8 | 
CCCC(C(=O)NCCc1ccc(-c2ccc(Cl)c(Cl)c2)cc1)N(C)C (racemic) [Compound 92, (R)/(S)-N-(2-(3′,4′-dichloro-[1,1′-biphenyl]-4-yl)ethyl)-2-(dimethylamino)pentanamide] |  |  | 8~32 μg/mL |  | 4~16 μg/mL | 8~32 μg/mL |  |  |  |  |  |  |  | 8~32 μg/mL |  | 

— patent publication US12180139B2, “Method for preparing aminoalkanoic acid derivative containing biphenyl group” (AMTIXBIO CO., LTD., priority 2019, dated 2024)
